Test: pH-dependent spectroscopic properties (pH titration, absorption and fluorescence)
Type: physicochemical
Procedure: In each step of pH titration, small volumes (2-10 μL) of HCl at appropriate concentrations (0.1, 10^−2, or 10^−3 M) were pipetted directly into the measurement cell, followed by filling up with 2 mL of 1 μM dye-containing solution [either in a mixture of PBS/ethanol 1:1 (v/v) or 0.5% (v/v) DMSO]. The pH was monitored at 298 K using a digital pH meter (827 pH lab) equipped with a Biotrode (Metrohm, Herisau, Switzerland). Calibration of the instrument was performed with standard aqueous solutions of pH 4, 7, and 9 from Metrohm. Absorption and fluorescence measurements were carried out on an Agilent Cary 5000 spectrophotometer and a Horiba Jobin Yvon spectrometer (Nanolog FL3-2iHR), respectively.
We investigated the spectroscopic properties of the fluorescent probe as a function of pH in phosphate-buffered saline (PBS) containing 50% ethanol by UV-vis spectrophotometry and fluorimetry (FIGS. 21A-21F, 22-23).

[1] = pH range of 3-11, C2H5OH/PBS (1:1, v/v)

Row | Structure (SMILES) | onset of the fluorescence peak at 618 nm (pH) (PBS containing 50% ethanol) | red emission peak (PBS containing 50% ethanol) [nm] | longest wavelength absorption band (acidic conditions (pH of about 4), PBS containing 50% ethanol) [nm] | increase in emission at 618 nm (pH drops from 7.4 to 5.5) | increase in emission at 618 nm (pH drops from 7.4 to 6.5) [fold] | increase in emission at 618 nm (pH drops from 7.4 to 7.0) | pKa (corrected pKa) (reappearance of the absorption bands at 602 nm on reacidification with HCl, PBS containing 50% ethanol) | absorbance as a function of pH [1] | fluorescence as a function of pH [1]
1 | CCOC(=O)C(=CC1=[N+]2C(=C(c3ccncc3)c3ccc(C=C(C(=O)OCC)C(=O)OCC)n3[B-]2(F)F)C=C1)C(=O)OCC [BODIPY] | about 7.4 | 618 | 602 | about 15 fold | 8 | about 3 fold | 5.28±0.05 |  | 
2 | CN(C)CCNC(=O)CCc1ccc2n1[B-](F)(F)[N+]1=C(c3ccc[nH]3)C=CC1=C2 [LysoTracker™ Red, reference compound] |  |  |  |  |  |  |  | near-constant | always-on

— US12578273B2, “Ph-reversible leuco-BODIPY probe for in situ visualization of extracellular vesicles and their secretion from living cells” (The Chinese University of Hong Kong, priority 2021, dated 2026)
